Results reported in patent publication US9139570B2, “Solid forms of an antiviral compound” (priority 2012, dated 2015).
Several values for one entry are separate records, joined by “and”; a condition that tells them apart may be missing. Identical values can stand only once. Like-named read-outs stand apart in the source and are kept apart here.

How the values were obtained:
[1] = Dynamic vapor sorption (DVS) hygroscopicity; type: physicochemical; conditions: for moisture uptake / weight gain (DVS): at 90% relative humidity
[2] = Photostability of solid forms, photoexposure 0.9 M Lux-hrs, HPLC analysis; type: physicochemical
Text: FIG. 6 compares the photodegradation behaviors of amorphous Compound I (vertical stripes), Compound I Form II (horizontal stripes), and a partially amorphous hydrochloride salt of Compound I (diagonal stripes) during photoexposure at 0.9 M Lux-hrs. The leftmost group of bars represents the overall decrease in HPLC % AN of these three forms of Compound I. The middle group of bars represents the formation of a primary photodegradation impurity resulting from each form of Compound I. The rightmost group of bars similarly represents the formation of a secondary photodegradation impurity that eluted on HPLC at relative retention time (RRT) 1.67.
HPLC analyses of the samples compared the amounts of photodegradation products in each sample. […] For example, Form II of Compound I gave rise to the lowest (2.24% AN) amount of photodegradation in this experiment.
The middle group and rightmost group of bars depict the amounts of two of the major photodegradation impurities formed after the three solid forms of Compound I were photoexposed.

[3] = Dissolution rate / kinetic solubility in water at pH 3
[4] = Slurry test in water; type: physicochemical
Text: The source of water is believed to be moisture in the air during material transfer.

[5] = Stable form screen (slurry in solvents, XRPD); type: physicochemical; conditions: 2 weeks
Procedure: Approximately 15-60 mg of amorphous (1-{3-[6-(9,9-difluoro-7-{2-[5-(2-methoxycarbonylamino-3-methyl-butyryl)-5-aza-spiro[2.4]hept-6-yl]-3H-imidazol-4-yl}-9H-fluoren-2-yl)-1H-benzoimidazol-2-yl]-2-aza-bicyclo[2.2.1]heptane-2-carbonyl}-2-methyl-propyl)-carbamic acid (HPLC purity of 99.3%) were weighed and transferred to a vial equipped with a mini magnetic stir bar. […] The slurry was allowed to stir for two weeks at room temperature (˜22° C.) and examined periodically.
After two weeks, a sample of 300 μL of the slurry was removed from the vial, transferred to a centrifuge filter (Costar, 0.45 micron) and centrifuged at 1000 rpm for 2 minutes. The solid in the wet cake form were analyzed using XRPD analysis (PANalytical X'Pert PRO X-ray powder diffractometer). This diffractometer uses Cu-Kα radiation at a wavelength of 1.54178 Å, and it operates under reflection mode. Scan range is from 2 to 40 degree 2 theta. The step size is 0.0080 at a scan speed of 0.13°/s, which gives about 5 min per scan. After air drying the small sample, XRPD analysis was performed again to monitor any change in the diffraction pattern between the wet and dry material. Thermogravimetric analysis (TGA) was run on the saturated solution to determine the solubility of the equilibrating solids in the solvent when the solid appeared to be crystalline.

[6] = Solubility of Compound I over a greater pH range; conditions: aqueous buffer

COC(=O)N[C@H](C(=O)N1CC2(CC2)C[C@H]1c1ncc(-c2ccc3c(c2)C(F)(F)c2cc(-c4ccc5nc([C@@H]6[C@H]7CC[C@H](C7)N6C(=O)[C@@H](NC(=O)OC)C(C)C)[nH]c5c4)ccc2-3)[nH]1)C(C)C [amorphous Compound I]
hygroscopicity by DVS (words) [1]: hygroscopic | moisture induced phase transformation ([1]; any humidity level): does not undergo moisture induced phase transformation | moisture uptake / weight gain (DVS) [1]: 5.4% and 5.6%

COC(=O)N[C@H](C(=O)N1CC2(CC2)C[C@H]1c1ncc(-c2ccc3c(c2)C(F)(F)c2cc(-c4ccc5nc([C@@H]6[C@H]7CC[C@H](C7)N6C(=O)[C@@H](NC(=O)OC)C(C)C)[nH]c5c4)ccc2-3)[nH]1)C(C)C [Compound I Form II, (1-{3-[6-(9,9-difluoro-7-{2-[5-(2-methoxycarbonylamino-3-methyl-butyryl)-5-aza-spiro[2.4]hept-6-yl]-3H-imidazol-4-yl}-9H-fluoren-2-yl)-1H-benzoimidazol-2-yl]-2-aza-bicyclo[2.2.1]heptane-2-carbonyl}-2-methyl-propyl)-carbamic acid methyl ester monoacetone solvate]
photostability compared with amorphous Compound I and partially amorphous HCl salt [2]: best photostability among the three forms compared | overall decrease in HPLC % AN (amount of photodegradation) ([2]; solid): 2.24 % AN | dissolution rate ranking [3]: slowest dissolution rate

COC(=O)N[C@H](C(=O)N1CC2(CC2)C[C@H]1c1ncc(-c2ccc3c(c2)C(F)(F)c2cc(-c4ccc5nc([C@@H]6[C@H]7CC[C@H](C7)N6C(=O)[C@@H](NC(=O)OC)C(C)C)[nH]c5c4)ccc2-3)[nH]1)C(C)C [Compound I Form VIII, (1-{3-[6-(9,9-difluoro-7-{2-[5-(2-methoxycarbonylamino-3-methyl-butyryl)-5-aza-spiro[2.4]hept-6-yl]-3H-imidazol-4-yl}-9H-fluoren-2-yl)-1H-benzoimidazol-2-yl]-2-aza-bicyclo[2.2.1]heptane-2-carbonyl}-2-methyl-propyl)-carbamic acid methyl ester]
stability in water (slurry test) [4]: stable in water | water absorbed (DVS) [1]: roughly one equivalent of water

COC(=O)N[C@H](C(=O)N1CC2(CC2)C[C@H]1c1ncc(-c2ccc3c(c2)C(F)(F)c2cc(-c4ccc5nc([C@@H]6[C@H]7CC[C@H](C7)N6C(=O)[C@@H](NC(=O)OC)C(C)C)[nH]c5c4)ccc2-3)[nH]1)C(C)C [Compound I Form V, (1-{3-[6-(9,9-difluoro-7-{2-[5-(2-methoxycarbonylamino-3-methyl-butyryl)-5-aza-spiro[2.4]hept-6-yl]-3H-imidazol-4-yl}-9H-fluoren-2-yl)-1H-benzoimidazol-2-yl]-2-aza-bicyclo[2.2.1]heptane-2-carbonyl}-2-methyl-propyl)-carbamic acid methyl ester ethyl acetate solvate]
hygroscopicity by DVS (words) ([1]; listed as Form V): non-hygroscopic

COC(=O)N[C@H](C(=O)N1CC2(CC2)C[C@H]1c1ncc(-c2ccc3c(c2)C(F)(F)c2cc(-c4ccc5nc([C@@H]6[C@H]7CC[C@H](C7)N6C(=O)[C@@H](NC(=O)OC)C(C)C)[nH]c5c4)ccc2-3)[nH]1)C(C)C [Compound I Form XV, (1-{3-[6-(9,9-difluoro-7-{2-[5-(2-methoxycarbonylamino-3-methyl-butyryl)-5-aza-spiro[2.4]hept-6-yl]-3H-imidazol-4-yl}-9H-fluoren-2-yl)-1H-benzoimidazol-2-yl]-2-aza-bicyclo[2.2.1]heptane-2-carbonyl}-2-methyl-propyl)-carbamic acid methyl ester]
hygroscopicity by DVS (words) ([1]; listed as Form XV): non-hygroscopic

COC(=O)N[C@H](C(=O)N1CC2(CC2)C[C@H]1c1ncc(-c2ccc3c(c2)C(F)(F)c2cc(-c4ccc5nc([C@@H]6[C@H]7CC[C@H](C7)N6C(=O)[C@@H](NC(=O)OC)C(C)C)[nH]c5c4)ccc2-3)[nH]1)C(C)C [Compound I Form III, (1-{3-[6-(9,9-difluoro-7-{2-[5-(2-methoxycarbonylamino-3-methyl-butyryl)-5-aza-spiro[2.4]hept-6-yl]-3H-imidazol-4-yl}-9H-fluoren-2-yl)-1H-benzoimidazol-2-yl]-2-aza-bicyclo[2.2.1]heptane-2-carbonyl}-2-methyl-propyl)-carbamic acid methyl ester]
moisture uptake / weight gain (DVS) ([1]; listed as Form III): less than 0.3% | hygroscopicity by DVS (words) ([1]; listed as Form III): nonhygroscopic

COC(=O)N[C@H](C(=O)N1CC2(CC2)C[C@H]1c1ncc(-c2ccc3c(c2)C(F)(F)c2cc(-c4ccc5nc([C@@H]6[C@H]7CC[C@H](C7)N6C(=O)[C@@H](NC(=O)OC)C(C)C)[nH]c5c4)ccc2-3)[nH]1)C(C)C [Compound I D-tartrate, (1-{3-[6-(9,9-difluoro-7-{2-[5-(2-methoxycarbonylamino-3-methyl-butyryl)-5-aza-spiro[2.4]hept-6-yl]-3H-imidazol-4-yl}-9H-fluoren-2-yl)-1H-benzoimidazol-2-yl]-2-aza-bicyclo[2.2.1]heptane-2-carbonyl}-2-methyl-propyl)-carbamic acid D-tartrate]
physical form by XRPD after slurry in various solvents [5]: physical form did not change | moisture uptake / weight gain (DVS) [1]: less than 3%

COC(=O)N[C@H](C(=O)N1CC2(CC2)C[C@H]1c1ncc(-c2ccc3c(c2)C(F)(F)c2cc(-c4ccc5nc([C@@H]6[C@H]7CC[C@H](C7)N6C(=O)[C@@H](NC(=O)OC)C(C)C)[nH]c5c4)ccc2-3)[nH]1)C(C)C [Compound I, (1-{3-[6-(9,9-difluoro-7-{2-[5-(2-methoxycarbonylamino-3-methyl-butyryl)-5-aza-spiro[2.4]hept-6-yl]-3H-imidazol-4-yl}-9H-fluoren-2-yl)-1H-benzoimidazol-2-yl]-2-aza-bicyclo[2.2.1]heptane-2-carbonyl}-2-methyl-propyl)-carbamic acid methyl ester]
solubility [6]: < 1 µg/mL
